Numbers after ± are expanded uncertainties.
Settings: Crystal; visual observation

Compound: c1ccc2cc3ccccc3cc2c1 [anthracene]
- Normal melting temperature: 215 ± 1 °C
